Values joined by “and” are separate entries in the source; they are usually repeats but may differ in a detail not shown here. Equal entries are not always repeated. Toxic doses and inconclusive results are not listed.
Tested on: P388 leukemia ip, CD2F1 mice, survival T/C
Experiment: NCI In Vivo Anticancer Drug Screen. Data for tumor model P388 Leukemia (intraperitoneal) in CD2F1 (CDF1) mice
Settings: endpoint: median survival time, higher = longer survival
Outline: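 Mice carrying the transplanted tumor received test compound or vehicle. Survival was recorded in each group, and the value is the treated-group measurement divided by that of the vehicle-treated control group.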

[1] = dose: 60.0 mg/kg/injection, schedule: Q01DX005 (ip), vehicle: Klucel (hydroxypropylcellulose) (HPC)
[2] = dose: 120.0 mg/kg/injection, schedule: Q01DX005 (ip), vehicle: Klucel (hydroxypropylcellulose) (HPC)
[3] = dose: 240.0 mg/kg/injection, schedule: Q01DX005 (ip), vehicle: Klucel (hydroxypropylcellulose) (HPC)
[4] = dose: 100.0 mg/kg/injection, schedule: Q01DX009 (ip), vehicle: Klucel (hydroxypropylcellulose) (HPC)
[5] = dose: 200.0 mg/kg/injection, schedule: Q01DX009 (ip), vehicle: Klucel (hydroxypropylcellulose) (HPC)
[6] = dose: 50.0 mg/kg/injection, schedule: Q01DX005 (ip), vehicle: saline with Tween-80
[7] = dose: 100.0 mg/kg/injection, schedule: Q01DX005 (ip), vehicle: saline with Tween-80
[8] = dose: 200.0 mg/kg/injection, schedule: Q01DX005 (ip), vehicle: saline with Tween-80
[9] = dose: 50.0 mg/kg/injection, schedule: Q01DX005 (ip), vehicle: saline
[10] = dose: 100.0 mg/kg/injection, schedule: Q01DX005 (ip), vehicle: saline
[11] = dose: 50.0 mg/kg/injection, schedule: Q01DX009 (ip), vehicle: saline with Tween-80
[12] = dose: 12.5 mg/kg/injection, schedule: Q01DX009 (ip), vehicle: saline with Tween-80
[13] = dose: 25.0 mg/kg/injection, schedule: Q01DX009 (ip), vehicle: saline with Tween-80
[14] = dose: 200.0 mg/kg/injection, schedule: Q01DX009 (ip), vehicle: saline with Tween-80

N#Cc1ccc(NN=NCCS(=O)CCCl)cc1 (centres undefined)
T/C (dose: 6.25 mg/kg/injection, schedule: Q01DX009 (ip), vehicle: distilled water + Tween-80): 100 % of control
T/C (dose: 12.5 mg/kg/injection, schedule: Q01DX009 (ip), vehicle: distilled water + Tween-80): 111 % of control
T/C (dose: 25.0 mg/kg/injection, schedule: Q01DX009 (ip), vehicle: distilled water + Tween-80): 112 % of control

CC(C[N+](C)(C)C)OC(N)=O (centres undefined)
T/C (dose: 50.0 mg/kg/injection, schedule: Q01DX001 (ip), vehicle: saline): 101 % of control
T/C (dose: 100.0 mg/kg/injection, schedule: Q01DX001 (ip), vehicle: saline): 100 % of control
T/C (dose: 200.0 mg/kg/injection, schedule: Q01DX001 (ip), vehicle: saline): 108 % of control

Oc1ccc(C(c2cc3c(cc2O)OCO3)N2CCN(C(c3ccc(O)cc3)c3cc4c(cc3O)OCO4)CC2)cc1 (centres undefined)
T/C [1]: 104 % of control
T/C [2]: 103 % of control
T/C [3]: 100 % of control

NC(=O)C1CCCC12NC(=O)NC2=O (centres undefined)
T/C [4]: 90 % of control
T/C [5]: 90 % of control
T/C (dose: 400.0 mg/kg/injection, schedule: Q01DX009 (ip), vehicle: Klucel (hydroxypropylcellulose) (HPC)): 100 % of control

CCSC(C(OC(C)=O)C(OC(C)=O)C(OC(C)=O)C(COC(C)=O)OC(C)=O)n1cnc2c(Cl)ncnc21 (centres undefined)
T/C [6]: 100 % of control
T/C [7]: 90 % of control
T/C [8]: 96 % of control

C=CCC1(CC=C)CC1OCC (centres undefined)
T/C [9]: 98 % of control
T/C [10]: 100 % of control
T/C (dose: 200.0 mg/kg/injection, schedule: Q01DX005 (ip), vehicle: saline): 100 % of control

C(=Nc1ccc2ccccc2c1)Nc1ccc2ccccc2c1.[Cu+2]
T/C (dose: 25.0 mg/kg/injection, schedule: Q01DX009 (ip), vehicle: saline): 115 % of control
T/C [11]: 117 % of control

COc1cc2cc(c1Cl)N(C)C(=O)CC(OC(=O)C(C)N(C)C(=O)C(C)C)C1(C)OC1C(C)C1CC(O)(NC(=O)O1)C(OC)/C=C/C=C(C)C2OC (centres undefined)
T/C (dose: 4.0 micrograms/kg/injection, schedule: Q01DX009 (ip), vehicle: Klucel (hydroxypropylcellulose) (HPC)): 157 % of control and 163 % of control
T/C (dose: 4.0 micrograms/kg/injection, schedule: Q01DX009 (ip), vehicle: distilled water + alcohol): 108 % of control
T/C (dose: 8.0 micrograms/kg/injection, schedule: Q01DX009 (ip), vehicle: Klucel (hydroxypropylcellulose) (HPC)): 168 % of control
T/C (dose: 8.0 micrograms/kg/injection, schedule: Q01DX009 (ip), vehicle: distilled water + alcohol): 108 % of control and 115 % of control
T/C (dose: 15.5 micrograms/kg/injection, schedule: Q01DX009 (ip), vehicle: none): 157 % of control
T/C (dose: 16.0 micrograms/kg/injection, schedule: Q01DX009 (ip), vehicle: Klucel (hydroxypropylcellulose) (HPC)): 154 % of control
T/C (dose: 16.0 micrograms/kg/injection, schedule: Q01DX009 (ip), vehicle: distilled water + alcohol): 100 % of control and 123 % of control
T/C (dose: 31.0 micrograms/kg/injection, schedule: Q01DX009 (ip), vehicle: none): 150 % of control
T/C (dose: 32.0 micrograms/kg/injection, schedule: Q01DX009 (ip), vehicle: distilled water + alcohol): 100 % of control
T/C (dose: 64.0 micrograms/kg/injection, schedule: Q01DX009 (ip), vehicle: Klucel (hydroxypropylcellulose) (HPC)): 91 % of control
T/C (dose: 64.0 micrograms/kg/injection, schedule: Q01DX009 (ip), vehicle: distilled water + alcohol): 100 % of control
T/C (dose: 128.0 micrograms/kg/injection, schedule: Q01DX009 (ip), vehicle: distilled water + alcohol): 106 % of control

O=S1(=O)CCN(CCCCc2ccccc2)CC1
T/C (dose: 50.0 mg/kg/injection, schedule: Q01DX009 (ip), vehicle: Klucel (hydroxypropylcellulose) (HPC)): 94 % of control
T/C [4]: 101 % of control
T/C [5]: 101 % of control

O=C(O)c1ccccc1C(=O)Nc1ccccc1C(F)(F)F
T/C (dose: 178.0 mg/kg/injection, schedule: Q01DX009 (ip), vehicle: saline with Tween-80): 110 % of control
T/C (dose: 266.0 mg/kg/injection, schedule: Q01DX009 (ip), vehicle: saline with Tween-80): 104 % of control
T/C (dose: 400.0 mg/kg/injection, schedule: Q01DX009 (ip), vehicle: saline with Tween-80): 101 % of control

CCCCC/C([O-])=C1/C(=O)N(c2ccccc2)N=C1C.CCCCC/C([O-])=C1/C(=O)N(c2ccccc2)N=C1C.[Cu+2]
T/C (dose: 60.0 mg/kg/injection, schedule: Q01DX005 (ip), vehicle: saline with Tween-80): 96 % of control
T/C (dose: 120.0 mg/kg/injection, schedule: Q01DX005 (ip), vehicle: saline with Tween-80): 101 % of control

Nc1nc(=O)n(C2CCCCO2)cc1Br (centres undefined)
T/C (dose: 50.0 mg/kg/injection, schedule: Q01DX005 (ip), vehicle: Klucel (hydroxypropylcellulose) (HPC)): 104 % of control
T/C (dose: 100.0 mg/kg/injection, schedule: Q01DX005 (ip), vehicle: Klucel (hydroxypropylcellulose) (HPC)): 109 % of control
T/C (dose: 200.0 mg/kg/injection, schedule: Q01DX005 (ip), vehicle: Klucel (hydroxypropylcellulose) (HPC)): 97 % of control

COc1ccc(-c2coc3c4c(c(CC=C(C)C)c(OC)c3c2=O)OC(C)(C)C=C4)cc1OC
T/C (dose: 12.5 mg/kg/injection, schedule: Q01DX005 (ip), vehicle: saline with Tween-80): 102 % of control
T/C (dose: 25.0 mg/kg/injection, schedule: Q01DX005 (ip), vehicle: saline with Tween-80): 100 % of control
T/C [6]: 98 % of control and 91 % of control

CCCCCCCCSc1nc(Nc2cc(C(C)(C)C)c(O)c(C(C)(C)C)c2)nc(SCCCCCCCC)n1
T/C [12]: 105 % of control
T/C [13]: 104 % of control
T/C [11]: 99 % of control and 92 % of control
T/C [14]: 100 % of control

O=C1c2ccccc2CN(C(=Nc2ccccc2)Nc2ccccc2)c2ccccc21
T/C [6]: 90 % of control
T/C [7]: 91 % of control
T/C [8]: 102 % of control

Cc1ccccc1NC(=O)CCC(=O)NS(C)(=O)=O
T/C (dose: 100.0 mg/kg/injection, schedule: Q01DX001 (ip), vehicle: saline with Tween-80): 102 % of control
T/C (dose: 200.0 mg/kg/injection, schedule: Q01DX001 (ip), vehicle: saline with Tween-80): 95 % of control
T/C (dose: 400.0 mg/kg/injection, schedule: Q01DX001 (ip), vehicle: saline with Tween-80): 95 % of control

O=C(OCC1N=C1c1ccccc1)c1ccc([N+](=O)[O-])cc1 (centres undefined)
T/C (dose: 50.0 mg/kg/injection, schedule: Q04DX003 (ip), vehicle: suspension in saline): 99 % of control
T/C (dose: 100.0 mg/kg/injection, schedule: Q04DX003 (ip), vehicle: suspension in saline): 98 % of control
T/C (dose: 200.0 mg/kg/injection, schedule: Q04DX003 (ip), vehicle: suspension in saline): 100 % of control

Cc1cc(NCCCCCCNc2cc(C)[n+](C)c3ccccc23)c2ccccc2[n+]1C
T/C (dose: 3.12 mg/kg/injection, schedule: Q01DX005 (ip), vehicle: suspension in saline): 101 % of control
T/C (dose: 6.25 mg/kg/injection, schedule: Q01DX005 (ip), vehicle: suspension in saline): 106 % of control
T/C (dose: 12.5 mg/kg/injection, schedule: Q01DX005 (ip), vehicle: suspension in saline): 115 % of control

O=C(NC(Cc1ccccc1)C(=O)O)OCc1ccccc1 (centres undefined) (tested in a mixture with another compound)
T/C (dose: 6.25 mg/kg/injection, schedule: Q01DX005 (ip), vehicle: Klucel (hydroxypropylcellulose) (HPC)): 109 % of control
T/C (dose: 12.5 mg/kg/injection, schedule: Q01DX005 (ip), vehicle: Klucel (hydroxypropylcellulose) (HPC)): 106 % of control
T/C (dose: 25.0 mg/kg/injection, schedule: Q01DX005 (ip), vehicle: Klucel (hydroxypropylcellulose) (HPC)): 94 % of control

OC1Cc2ccccc2CC1NC1CCCCC1 (centres undefined)
T/C [9]: 108 % of control
T/C [10]: 98 % of control

Nc1nccc2c1ncn2C1OC(CO)C(O)C1O (centres undefined)
T/C (dose: 4.67 mg/kg/injection, schedule: Q03HX024 (ip), vehicle: saline with Tween-80): 110 % of control
T/C (dose: 4.69 mg/kg/injection, schedule: Q03HX024 (ip), vehicle: saline with Tween-80): 114 % of control
T/C (dose: 9.38 mg/kg/injection, schedule: Q03HX024 (ip), vehicle: saline with Tween-80): 111 % of control and 112 % of control
T/C [12]: 94 % of control and 97 % of control
T/C (dose: 18.75 mg/kg/injection, schedule: Q03HX024 (ip), vehicle: saline with Tween-80): 97 % of control
T/C [13]: 92 % of control and 93 % of control
T/C (dose: 37.5 mg/kg/injection, schedule: Q03HX024 (ip), vehicle: saline with Tween-80): 112 % of control and 117 % of control
T/C (dose: 100.0 mg/kg/injection, schedule: Q01DX009 (ip), vehicle: saline with Tween-80): 88 % of control and 94 % of control
T/C [14]: 86 % of control

CC12CCC(c3cn[nH]c31)C2(C)C (centres undefined)
T/C [1]: 100 % of control
T/C [2]: 100 % of control
T/C [3]: 100 % of control

From PubChem BioAssay AID330 (DTP/NCI, 2004)
